Assay results as given in ChEMBL document CHEMBL1140757, “Studies toward the structural optimization of new brazilizone-related trypanocidal 1,3,4-thiadiazole-2-arylhydrazone derivatives” (Bioorg Med Chem, 2008).

System: Trypanosoma cruzi
Assay: Trypanocidal activity against Trypanosoma cruzi Y trypomastigotes assessed as parasite lysis
Format: functional, organism-based

COc1cc(/C=N/Nc2nnc(-c3ncc([N+](=O)[O-])n3C)s2)cc([N+](=O)[O-])c1O
IC50: 19 µM

Cn1c([N+](=O)[O-])cnc1-c1nnc(N/N=C/c2cccc(Br)c2)s1
IC50: 728 µM

Cn1c([N+](=O)[O-])cnc1-c1nnc(N/N=C/c2ccccc2[N+](=O)[O-])s1
IC50: 726 µM

Cn1c([N+](=O)[O-])cnc1-c1nnc(N/N=C/c2ccccc2Br)s1
IC50: 900 µM

Cn1c([N+](=O)[O-])cnc1-c1nnc(N/N=C/c2cccc(Cl)c2Cl)s1
IC50: 1210 µM

Cn1c([N+](=O)[O-])cnc1-c1nnc(N/N=C/c2cccc([N+](=O)[O-])c2)s1
IC50: 48.2 µM

Cn1c([N+](=O)[O-])cnc1-c1nnc(N/N=C/c2cccc(O)c2)s1
IC50: 73.9 µM

Cn1c([N+](=O)[O-])cnc1-c1nnc(N/N=C/c2ccccc2Cl)s1
IC50: 140 µM

Cn1c([N+](=O)[O-])cnc1-c1nnc(N/N=C/c2cccc(Cl)c2)s1
IC50: 187 µM

Cn1c([N+](=O)[O-])cnc1-c1nnc(N/N=C/c2cccc(O)c2O)s1
IC50: 309 µM

Cn1c([N+](=O)[O-])cnc1-c1nnc(N/N=C/c2ccc(Cl)cc2Cl)s1
IC50: 794 µM

Cn1c([N+](=O)[O-])cnc1-c1nnc(N/N=C/c2cc(O)ccc2O)s1
IC50: 140 µM
